Entries after “also recorded” stand apart in the source; their conditions may differ.
Columns and labels:
[1] = test system: STING; assay type: cell-based, mouse
[2] = test system: STING; assay type: cell-based, mouse; remark: listed apart in the source
[3] = test system: STING; assay type: cell-based, mouse; remark: listed apart in the source
[4] = test system: STING; assay type: cell-based, mouse; remark: listed apart in the source
[5] = test system: THP1-Blue-ISG reporter cells; assay type: cell-based

## Nc1nc2c(ncn2[C@@H]2O[C@@H]3COP(=O)(O)O[C@H]4[C@@H](O)[C@H](n5cnc6c(N)ncnc65)O[C@@H]4COP(=O)(O)O[C@@H]2[C@@H]3O)c(=O)[nH]1 [cGAMP, 2′3′-cGAMP]
[1]
  STING agonism evidenced by induction of a variety of inflammatory genes: agonists of STING

## Nc1ncnc2c1ncn2[C@@H]1O[C@@H]2COP(=O)(O)O[C@H]3[C@@H](O)[C@H](n4cnc5c(N)ncnc54)O[C@@H]3COP(=O)(O)O[C@H]2[C@H]1O [c-di-AMP]
[2]
  induction of nitrite: more potent induction
[3]
  induction of IFNß: more potent induction
[4]
  STING agonism / activation of the pathway: agonists of STING; also recorded: stronger activation
[1]
  STING agonism evidenced by induction of a variety of inflammatory genes: agonists of STING; also recorded: stronger activation

B1: CdaA: c-di-AMP cyclase from Listeria monocytogenes, wild type, expressed from plasmid in HEK 293T cells (protein, UniProt Q45589 1-273, looked up)
Cyclic di-AMP synthase CdaA: MAFEDIPFLQYLGNAVDILLVWYVIYKLIMVIRGTKAVQLLKGIVVIVLVRMASQYLGLSTLQWLMDQAITWGFLAIIIIFQPELRRALEQLGRGRFFSRSGTPVEEAQQKTIEAITKAINYMAKRRIGALLTIERDTGMGDYIETGIPLNAKVSSELLINIFIPNTPLHDGAVIMKNNEIAAAACYLPLSESPFISKELGTRHRAAVGISEVTDSLTIIVSEETGGVSVAKNGDLHRELTEEALKEMLEAEFKKNTRDTSSNRWYWRGKKNG
[5]
  SEAP activity (activation of interferon signaling): displayed activity

Source: patent US20240245804A1 (priority 2021, published 2024)
